Consider eleven compounds from PubChem BioAssay (NCI).

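Following 48 hours of exposure in 96-well plates, responses at five concentrations were used to interpolate endpoints linearly. The concentration for 50% growth inhibition is given as GI50. TGI marks complete inhibition of growth.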

Some test systems named below: 786-0 renal; A549 NSCLC; HOP-62 NSCLC; HT29 colon; IGROV1 ovarian; MALME-3M melanoma; OVCAR-5 ovarian; SK-MEL-5 melanoma; SN12C renal; SNB-75 CNS.
Common to all, as to assay: inhibition of tumour cell growth, NCI panel, 48 h

As to `COc1nc(N)nc2c1ncn2C1OC(CO)C(O)C1O` (centres undefined), the GI50 is greater than 5000 µM in the assay on 786-0 renal; 701 µM in the assay on A549 NSCLC; 2010 µM in the assay with HOP-62 NSCLC; greater than 5000 µM with HT29 colon; 1150 µM in the assay with MALME-3M melanoma; greater than 5000 µM with OVCAR-5 ovarian. Moreover, the GI50 in the assay with SK-MEL-5 melanoma was 164 µM; in the assay with SN12C renal, 3280 µM; in the assay with SNB-75 CNS it was greater than 5000 µM. Besides, the TGI with 786-0 renal, in the assay on A549 NSCLC, in the assay on HOP-62 NSCLC, with HT29 colon, with IGROV1 ovarian and in the assay with MALME-3M melanoma was greater than 5000 µM each time. Moreover, the TGI in the assay on OVCAR-5 ovarian, in the assay on SK-MEL-5 melanoma, in the assay on SN12C renal and in the assay with SNB-75 CNS was greater than 5000 µM throughout.

As for `COC(=O)C(Cc1nc2ccccc2[nH]c1=O)C(=O)C(=O)Nc1ccc([N+](=O)[O-])cc1[N+](=O)[O-]` (centres undefined), the TGI in the assay on 786-0 renal is 32 µM; in the assay with A549 NSCLC it was greater than 100 µM; in the assay with HOP-62 NSCLC, 45.4 µM; in the assay with HT29 colon, 35 µM; in the assay with IGROV1 ovarian, 55.4 µM; in the assay with MALME-3M melanoma it was 34.3 µM. Also, the TGI in the assay on OVCAR-5 ovarian came out at 51 µM; in the assay with SK-MEL-5 melanoma, 33.1 µM; in the assay on SN12C renal it was 50.6 µM; in the assay with SNB-75 CNS it was 39.3 µM.

Consider `CC(=O)OC1CC2C(C)(C)C(=O)C=C[C@]2(C)C2CCC3(C)C(=CC(=O)C3c3ccoc3)[C@]12C` (some centres undefined), for which the TGI was 31.1 µM with 786-0 renal; 41 µM with A549 NSCLC; 31.1 µM in the assay on HOP-62 NSCLC; 32.1 µM in the assay on HT29 colon; 57.9 µM in the assay with IGROV1 ovarian; 34.4 µM with MALME-3M melanoma. The TGI is 37.8 µM in the assay on OVCAR-5 ovarian, 26.4 µM in the assay with SK-MEL-5 melanoma, 32.5 µM with SN12C renal and 36.1 µM with SNB-75 CNS.

On to `CN(C)C=C1C(Cl)=C(C=O)CC(C=O)=C1Cl`, for which the TGI was 24.5 µM in the assay on 786-0 renal; greater than 100 µM in the assay on A549 NSCLC; 51.7 µM in the assay on HOP-62 NSCLC; 30 µM in the assay on HT29 colon; 33 µM with IGROV1 ovarian; 24.4 µM with MALME-3M melanoma. Also, the TGI with OVCAR-5 ovarian is 30 µM; in the assay on SK-MEL-5 melanoma, 23.5 µM; in the assay with SN12C renal it was greater than 100 µM; with SNB-75 CNS, 29.5 µM.

Turning to `O=C1C=CC(=O)c2cc(Sc3ccccc3)c(=O)ccc21`, the TGI came to 31.9 µM in the assay with 786-0 renal; 39.5 µM in the assay on A549 NSCLC; 47.3 µM in the assay on HOP-62 NSCLC; 41.6 µM in the assay on HT29 colon; 35 µM in the assay on IGROV1 ovarian; 36.4 µM with MALME-3M melanoma. Also, the TGI came to 36.3 µM in the assay with OVCAR-5 ovarian, 31.5 µM in the assay with SK-MEL-5 melanoma, 33.9 µM in the assay with SN12C renal and 31.2 µM in the assay with SNB-75 CNS.

With `O=C(/C=C/c1ccccc1)n1c(-c2ccc(Cl)cc2)nc2ccccc21`, the GI50 in the assay with 786-0 renal is 2.05 µM; with A549 NSCLC it was 1.89 µM; in the assay on HOP-62 NSCLC it was 2.72 µM; in the assay on HT29 colon, 1.51 µM; with IGROV1 ovarian, 1.95 µM; in the assay with MALME-3M melanoma, 1.63 µM. The GI50 in the assay with OVCAR-5 ovarian was 1.74 µM; in the assay on SK-MEL-5 melanoma it was 1.64 µM; in the assay with SN12C renal it was 1.39 µM; with SNB-75 CNS it was 1.44 µM. Also, the TGI in the assay on 786-0 renal stood at 7.63 µM; in the assay with A549 NSCLC, 7.3 µM; in the assay on HOP-62 NSCLC it was 5.17 µM; with HT29 colon, 3.71 µM; with IGROV1 ovarian, 4.63 µM; in the assay on MALME-3M melanoma, 5.74 µM. For the same compound, the TGI in the assay with OVCAR-5 ovarian came out at 4.21 µM; in the assay with SK-MEL-5 melanoma it was 3.12 µM; in the assay on SN12C renal, 2.76 µM; in the assay with SNB-75 CNS, 3.77 µM.

For the compound `CC(=O)[CH-]C(=O)c1ccccc1.CC(=O)[CH-]C(=O)c1ccccc1.CCOCC[O-].CCOCC[O-].[Ti+4]`, the GI50 was 21.2 µM in the assay with 786-0 renal; 28.7 µM in the assay with A549 NSCLC; 25.9 µM in the assay with HOP-62 NSCLC; 20.1 µM in the assay on HT29 colon; 31.9 µM in the assay with IGROV1 ovarian; 16.9 µM in the assay with MALME-3M melanoma. For the same compound, the GI50 with OVCAR-5 ovarian was 26.8 µM; in the assay on SK-MEL-5 melanoma, 22.5 µM; with SN12C renal, 20.6 µM; in the assay with SNB-75 CNS it was 16.6 µM. Besides, the TGI is 74.2 µM in the assay with 786-0 renal; 90.5 µM in the assay with A549 NSCLC; 85.8 µM in the assay with HOP-62 NSCLC; 46.2 µM with HT29 colon; greater than 100 µM in the assay with IGROV1 ovarian; 43.7 µM in the assay with MALME-3M melanoma. The TGI in the assay with OVCAR-5 ovarian is 60.7 µM; in the assay on SK-MEL-5 melanoma it was 53.3 µM; with SN12C renal, 73.4 µM; with SNB-75 CNS, 43.8 µM.

Take `O=c1c2cccc3cccc(c4n1CCN=4)c32`: the TGI in the assay on 786-0 renal, in the assay on A549 NSCLC, in the assay with HOP-62 NSCLC, in the assay with HT29 colon, in the assay with IGROV1 ovarian and in the assay on MALME-3M melanoma was greater than 100 µM throughout. Also, the TGI with OVCAR-5 ovarian, with SK-MEL-5 melanoma, in the assay on SN12C renal and in the assay on SNB-75 CNS was greater than 100 µM throughout.

For `CN1C(=O)C(=O)c2cc3c(c4c2c1cc1ccccc14)OCO3`, the TGI in the assay with 786-0 renal, in the assay with A549 NSCLC, in the assay on HOP-62 NSCLC, with HT29 colon, in the assay with IGROV1 ovarian and with MALME-3M melanoma was greater than 100 µM each time. In addition, the TGI in the assay on OVCAR-5 ovarian, with SK-MEL-5 melanoma, in the assay on SN12C renal and in the assay with SNB-75 CNS was greater than 100 µM each time.

Turning to `CC1(CCC(=O)OC2CCCCC2)OCCO1`, the TGI in the assay with 786-0 renal, in the assay on A549 NSCLC, in the assay on HOP-62 NSCLC, in the assay with HT29 colon, in the assay on IGROV1 ovarian and in the assay with MALME-3M melanoma was greater than 100 µM in each case. Besides, the TGI in the assay on OVCAR-5 ovarian, with SK-MEL-5 melanoma, in the assay on SN12C renal and with SNB-75 CNS was greater than 100 µM each time.

Turning to `Cc1ccc(C)c(C2NC(=O)c3ccccc3N2)c1` (centres undefined), the TGI was greater than 64 µM in the assay on 786-0 renal; greater than 100 µM in the assay with A549 NSCLC; greater than 87.6 µM in the assay with HOP-62 NSCLC; greater than 54.2 µM in the assay on HT29 colon; greater than 100 µM in the assay on IGROV1 ovarian; greater than 95.7 µM with MALME-3M melanoma. Further, the TGI in the assay on OVCAR-5 ovarian is greater than 69.7 µM; in the assay with SK-MEL-5 melanoma, 21.3 µM; in the assay on SN12C renal, greater than 100 µM; in the assay with SNB-75 CNS it was 15.2 µM.
